Data as given in patent US20150087969A1, “SYSTEMS AND METHODS FOR OPTICALLY GUIDED PLACEMENT AND MONITORING OF MEDICAL IMPLANTS” (Children's National Medical Center, priority 2013, published 2015).

What was measured:
[1] = Stability of IRDye 800CW fluorescent signal in PBS at 37° C.; type: physicochemical; details: PBS at 37° C. with gentle agitation, 12 days
Experimental: According to another embodiment of the disclosure, in order to determine the long-term effect of being implanted in vivo, catheters are leached in phosphate buffered saline powder (PBS) for 23 days to determine the amount of dye retained within the matrix. TPU Composite tubes are cut into thin slices, weighed, and added to a black 96 well plate containing 200 μl PBS. Leaching of IRDye 800CW from the TPU Composite (n=8) is analyzed under physiological conditions (pH ˜7.4, 37° C., with gentle agitation) in a water bath. The water bath is covered to prevent photo-bleaching. Each day, tubes can be transferred to the successive well containing PBS, and the previous day is analyzed using a micro-plate reader with excitation at 765 nm, emission at 794 nm and a sensitivity of 100. […] Further, to determine the amount of IRDye 800CW retained, a calibration curve containing serial dilutions of IRDye 800CW in PBS is used (0 to 0.00030 wt %) (R^2=0.99). Additionally, 10 mL of IRDye 800CW in PBS is placed in the water bath and 100 μL aliquots are analyzed per day for signs of signal degradation due to heat.
The retention analysis of IR Dye 800 CW within TPU matrix of FIG. 17 includes a 6.35% of the IR Dye 800 CW being released from the polymer over 23 days. […]

[2] = Thermal degradation by thermogravimetric analysis (TGA); type: physicochemical; details: TGA in nitrogen gas at 20° C./min (n=3)
Experimental: According to an embodiment, aromatic polyether-based medical grade thermoplastic polyurethane (TPU) pellets can be mixed with and without IRDye 800CW to form TPU Composite and Plain TPU using a hydraulic platen press. […] The temperature at which the samples begin to decrease sharply in weight is determined to be their degradation point. According to an embodiment, thermal degradation temperatures are evaluated using a Q50 Thermogravimetric Analyzer (TGA), wherein the analysis is conducted in nitrogen gas at 20° C./min (n=3), where n is the number of times the experiment has been performed.
Furthermore, the degradation temperatures are considerably higher than the processing temperature of TPU (195° C.).

[3] = test system: Human Umbilical Vein Endothelial (HUVEC) cells; assay: Biocompatibility (toxicity) in direct contact with endothelial cells, alamar blue and Calcein AM/propidium iodide; type: cell-based
Experimental: According to another embodiment of disclosure, biocompatibility studies are conducted to determine the toxicity of TPU Composite in direct contact with endothelial cells as well as the adhesion of endothelial cells to the TPU Composite. Pressed films (Plain TPU and TPU Composite) are sterilized by washing in 1×PBS for 24 hours under constant agitation, followed by a 30 minute soak in 100% ethanol and two 1 hour rinses with PBS. Biocompatibility studies include 12 well cell bind plates being seeded with Human Umbilical Vein Endothelial (HUVEC) cells (passage 4-10, cultured in complete endothelial growth medium EGM Bulletkit, LONZA) at a density of 100 cells/cm^2 for 12 hours to allow for adhesion [37° C., 5% CO2]. Films (19 mm) are placed in direct contact to the cells and incubated for an additional 72 hours, replacing media daily. Toxicity is quantitatively analyzed with alamar blue according to manufacturer's protocol. Briefly, 100 μL of alamar blue is added to the media and allowed to incubate for 1.5 hours. Fluorescence of each alamar blue was read at excitation 545 nm, emission 590 nm. Films are removed from wells and cells are stained with Calcein AM and propidium iodide according to manufacturer's protocol, fixed with 4% paraformaldehyde for 1 hour and rinsed three times with PBS for qualitative analysis of cell death. Cells are imaged with fluorescent confocal imaging (Zeiss) for proliferation, morphology changes and viability. The process is repeated with 0.025 wt % IRDye 800CW in media, cells with media as a positive control, and cells with 70% ethanol in media as a negative control.

[4] = test system: Human Umbilical Vein Endothelial (HUVEC) cells; assay: Endothelial cell adhesion to films; type: cell-based; details: HUVECs seeded on films, one hour, Calcein AM/propidium iodide
Experimental: To determine if endothelial cells bind to the catheters, 19 mm films are cut and affixed to the bottom of suspension 12-well culture plates with 50 μL of 10 mg/mL collagen Type I isolated from rat tails. Plates are incubated for 30 minutes to allow for collagen polymerization. Films are seeded with 100 cells/cm^2 and incubated for one hour. Wells are washed with PBS to remove non-adherent cells and stained with Calcein AM and propidium iodide to aid in visualization of cell binding. The number and cell health of adherent cells is analyzed with fluorescence microscopy and compared to positive (collagen plates) and negative (Teflon) controls.
In order to be a viable biomaterial, cell adhesion should be minimal in order to avoid excess damage when removing or inserting the PICC.

| Compound | fluorescent signal stability in PBS [1] | thermal degradation temperature [2] [°C] | Normalized Viability ([3]; 0.025 wt % in media, HUVECs, 72 hours, alamar blue, normalized to media control) | cell viability (statistics) ([3]; 72 hour incubation of HUVECs, IRDye 800CW at 0.025 wt %) | cell morphology or proliferation rates ([3]; Calcein AM and Propidium Iodide staining, HUVECs) | cell adherence (qualitative, cell shape) [4] |
| --- | --- | --- | --- | --- | --- | --- |
| CC1(C)C(=CC=C2CCCC(C=CC3=[N+](CCCCCC(=O)[O-])c4ccc(S(=O)(=O)[O-])cc4C3(C)C)=C2Oc2ccc(S(=O)(=O)[O-])cc2)N(CCCCS(=O)(=O)[O-])c2ccc(S(=O)(=O)[O-])cc21.[Na+].[Na+].[Na+].[Na+] [IRDye 800CW] | no observed decrease in the fluorescent signal | 308±10 | 91.27 ± 8.54 | no statistical difference | no apparent change | – |
| Collagen I: collagen Type I isolated from rat tails, positive control for cell adhesion | – | – | – | – | – | preferentially adhered |
